These results are taken from patent publication US7064122B2, “Pancreatic lipase inhibitor compounds, their synthesis and use” (OSI Pharmaceuticals, Inc., priority 2001, dated 2006).

The target of one experiment is T1, type VI-S porcine pancreatic lipase (Sus scrofa, UniProt P00591).
T1 construct: purchased Sigma type VI-S (catalogue number not given)
T1 sequence (P00591 1-450): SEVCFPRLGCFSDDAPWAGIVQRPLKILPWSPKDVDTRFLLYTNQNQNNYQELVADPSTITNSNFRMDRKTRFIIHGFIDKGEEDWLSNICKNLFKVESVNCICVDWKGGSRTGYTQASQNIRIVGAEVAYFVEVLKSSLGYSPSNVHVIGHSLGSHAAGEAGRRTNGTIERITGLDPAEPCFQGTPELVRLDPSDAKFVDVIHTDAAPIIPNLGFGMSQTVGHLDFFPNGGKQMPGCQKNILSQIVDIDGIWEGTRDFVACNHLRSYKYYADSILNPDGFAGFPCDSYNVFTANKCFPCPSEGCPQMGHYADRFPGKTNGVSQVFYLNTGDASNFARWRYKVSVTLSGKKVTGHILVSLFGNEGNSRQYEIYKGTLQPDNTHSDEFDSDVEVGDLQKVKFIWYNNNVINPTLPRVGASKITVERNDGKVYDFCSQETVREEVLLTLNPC
Kind of experiment: Pancreatic lipase assay (pH-stat titration, triolein substrate). More on the design: Ymax: unit not given here. As to conditions: 7.0 nM lipase, 700 nM inhibitor, pH 8.0; Ymax of the fit Y=Ymax*(1-exp(-k*X)). Type of experiment: biochemical. Here is the method:
The use of a pancreatic lipase assay has been described in the literature (Hadvary, P. et al. Biochem. J. (1988) 256: 357-361; Hadvary, P. et al. Biochem. J. (1991) 266:2021-2027). Pancreatic lipase activity was measured using a 718 Stat Titrino (Brinkmann) programmed to maintain a pH of 8.0 using 0.1 N NaOH. The substrate mixture (pH 8) contained 1 mM taurochenodeoxycholate (Sigma), 9 mM taurodeoxycholate (Sigma), 0.1 mM cholesterol (Sigma), 1 mM phosphatidylcholine (Sigma), 1.5% BSA, 2 mM Tris base, 100 mM NaCl, 10 mM CaCl2, and 3% triolein (Sigma). The mixture (5 mL) was emulsified via sonication at room temperature, and added to the titration vessel with rapid stirring. The Stat Titrino was turned on and lipase (7.0 nM type VI-S porcine pancreatic lipase (Sigma) dissolved in PBS) was added to the vessel. After 10 min, inhibitor (700 nM dissolved in 100% DMSO) was added and the reaction continued for an additional 12.5 min. The k values were determined for the 12.5 min after the addition of the inhibitor using a one phase exponential association equation, Y=Ymax*(1−exp(−k*X)), k values for lipase alone were 0.0004±0.0001 sec. The k values for compounds disclosed herein are >0.0004±0.0001 sec.
In turn, `CCCCCCCCNc1nc2sc(C(=O)N(CCCC)CCCC)c(C)c2c(=O)o1` [Entry 36, 5-Methyl-2-octylamino-4-oxo-4H-thieno[2,3-d][1,3]oxazine-6-carboxylic acid dibutylamide] came in with a Ymax of 0.616.

Turning to `CCCCCCCCNc1nc2sc(C(=O)NC3CCCCC3)c(C)c2c(=O)o1` [Entry 38, 5-Methyl-2-octylamino-4-oxo-4H-thieno[2,3-d][1,3]oxazine-6-carboxylic acid cyclohexylamide], the Ymax was found to be 0.045.

Staying with this experiment, now noted: 7.0 nM lipase, 700 nM inhibitor, pH 8.0; k fitted for the 12.5 min after inhibitor addition, Y=Ymax*(1-exp(-k*X)).
For “2-Hexadecyloxy-5-methyl-4-oxo-4H-thieno[2,3-d][1,3]oxazine-6-carboxylic acid benzyl ester [Entry 7]”, the k is listed as 0.779 10-3.s-1.

With `CCCCCCCCOc1nc2sc(C(=O)OCc3ccccc3)c(C)c2c(=O)o1` [Entry 5, 5-Methyl-2-octyloxy-4-oxo-4H-thieno[2,3-d][1,3]oxazine-6-carboxylic acid benzyl ester], the k is recorded as 0.649 10-3.s-1.

As to `CCCCCCCOc1nc2sc(C(=O)OCc3ccccc3)c(C)c2c(=O)o1` [Entry 8, 2-Heptyloxy-5-methyl-4-oxo-4H-thieno[2,3-d][1,3]oxazine-6-carboxylic acid benzyl ester], the k is 1.052 10-3.s-1.

Turning to `CCCCCCCOC(=O)c1sc2nc(OCCCCCCC)oc(=O)c2c1C` [Entry 10, 5-Methyl-2-heptyloxy-4-oxo-4H-thieno[2,3-][1,3]oxazine-6-carboxylic acid heptyl ester], the k is listed as 1.349 10-3.s-1.

For the compound `CCCCCCCCOc1nc2sc(C(=O)O)c(C)c2c(=O)o1` [Entry 11, 5-Methyl-2-octyloxy-4-oxo-4H-thieno[2,3-d][1,3]oxazine-6-carboxylic acid], the k is recorded as 0.547 10-3.s-1.

On to `CCCCCCCCNC(=O)N(CCCCCCCC)c1nc2sc(C(=O)OCc3ccccc3)c(C)c2c(=O)o1` [Entry 13, 2-(1,3-Dioctyl-ureido)-5-methyl-4-oxo-4H-thieno[2,3-d][1,3]oxazine-6-carboxylic acid benzyl ester], for which the k was 0.414 10-3.s-1.

Regarding `CCCCCCCNC(=O)N(CCCCCCC)c1nc2sc(C(=O)OCc3ccccc3)c(C)c2c(=O)o1` [Entry 14, 2-(1,3-Diheptyl-ureido)-5-methyl-4-oxo-4H-thieno[2,3-d][1,3]oxazine-6-carboxylic acid benzyl ester], the k is 0.459 10-3.s-1.

Take `CCCCCCCCNC(=O)c1sc2nc(OCCCCCCCC)oc(=O)c2c1C` [Entry 15, 5-Methyl-2-octyloxy-4-oxo-4H-thieno[2,3-d][1,3]oxazine-6-carboxylic acid octylamide]: the k is on record as 1.548 10-3.s-1.

As to `CCCCCCCNc1nc2sc(C(=O)OCc3ccccc3)c(C)c2c(=O)o1` [Entry 17, 2-Heptylamino-5-methyl-4-oxo-4H-thieno[2,3-d][1,3]oxazine-6-carboxylic acid benzyl ester], the k is reported as 7.74 10-3.s-1.

On to `CCCCCCCCOC(=O)c1sc2nc(Nc3ccc(Oc4ccccc4)cc3)oc(=O)c2c1C` [Entry 19, 5-Methyl-4-oxo-2-(4-phenoxy-phenylamino)-4H-thieno[2,3-d][1,3]oxazine-6-carboxylic acid octyl ester], for which the k is reported as 0.981 10-3.s-1.

On to `CCCCCCCCNc1nc2sc(C(=O)OCCCCCCCC)c(C)c2c(=O)o1` [Entry 20, 5-Methyl-2-octylamino-4-oxo-4H-thieno[2,3-d][1,3]oxazine-6-carboxylic acid octyl ester], for which the k is 0.922 10-3.s-1.

Take `CCCCCCCCNc1nc2sc(C(=O)NCc3ccccc3)c(C)c2c(=O)o1` [Entry 21, 5-Methyl-2-octylamino-4-oxo-4H-thieno[2,3-d][1,3]oxazine-6-carboxylic acid benzylamide]: the k is recorded as 1.079 10-3.s-1.

As to `CCCCCCCCNc1nc2sc(C(=O)N(C)C)c(C)c2c(=O)o1` [Entry 22, 5-Methyl-2-octylamino-4-oxo-4H-thieno[2,3-d][1,3]oxazine-6-carboxylic acid dimethylamide], the k was 0.537 10-3.s-1.

As to `CCCCCCCCOc1nc2scc(C)c2c(=O)o1` [Entry 23, 5-Methyl-2-octyloxy-thieno[2,3-d][1,3]oxazin-4-one], the k is recorded as 0.893 10-3.s-1.

Consider `CCCCCCCCNc1nc2sc(C(=O)NCCCCCC)c(C)c2c(=O)o1` [Entry 27, 5-Methyl-2-octylamino-4-oxo-4H-thieno[2,3-d][1,3]oxazine-6-carboxylic acid hexylamide], for which the k is 2.577 10-3.s-1.

As to `CCCCCCCCCCNC(=O)c1sc2nc(NCCCCCCCC)oc(=O)c2c1C` [Entry 28, 5-Methyl-2-octylamino-4-oxo-4H-thieno[2,3-d][1,3]oxazine-6-carboxylic acid decylamide], the k is 0.998 10-3.s-1.

As for `CCCCCCCCCCCCNC(=O)c1sc2nc(NCCCCCCCC)oc(=O)c2c1C` [Entry 29, 5-Methyl-2-octylamino-4-oxo-4H-thieno[2,3-d][1,3]oxazine-6-carboxylic acid dodecylamide], the k was 0.797 10-3.s-1.

Turning to `CCCCCCCCCCCCCCCCNC(=O)c1sc2nc(NCCCCCCCC)oc(=O)c2c1C` [Entry 30, 5-Methyl-2-octylamino-4-oxo-4H-thieno[2,3-d][1,3]oxazine-6-carboxylic acid hexadecylamide], the k is reported as 0.433 10-3.s-1.

Consider `CCCCCCCCNc1nc2sc(C(=O)NCCCC)c(C)c2c(=O)o1` [Entry 32, 5-Methyl-2-octylamino-4-oxo-4H-thieno[2,3-d][1,3]oxazine-6-carboxylic acid butylamide], for which the k is given as 2.447 10-3.s-1.

As to `CCCCCCCCNc1nc2sc(C(=O)NCC)c(C)c2c(=O)o1` [Entry 33, 5-Methyl-2-octylamino-4-oxo-4H-thieno[2,3-d][1,3]oxazine-6-carboxylic acid ethylamide], the k is 0.547 10-3.s-1.

As to `CCCCCCCCNc1nc2sc(C(=O)NCc3ccccn3)c(C)c2c(=O)o1` [Entry 34, 5-Methyl-2-octylamino-4-oxo-4H-thieno[2,3-d][1,3]oxazine-6-carboxylic acid (pyridin-2-ylmethyl)amide], the k is on record as 0.864 10-3.s-1.

With `CCCCCCCCNc1nc2sc(C(=O)N(CCCC)CCCC)c(C)c2c(=O)o1` [Entry 36, 5-Methyl-2-octylamino-4-oxo-4H-thieno[2,3-d][1,3]oxazine-6-carboxylic acid dibutylamide], the k was 0.146 10-3.s-1.

For the compound `CCCCCCCCNc1nc2sc(C(=O)NC3CCCCC3)c(C)c2c(=O)o1` [Entry 38, 5-Methyl-2-octylamino-4-oxo-4H-thieno[2,3-d][1,3]oxazine-6-carboxylic acid cyclohexylamide], the k is reported as 2.173 10-3.s-1.

Regarding `CCCCCCCCNc1nc2sc(C(=O)N3CCN(Cc4ccccc4)CC3)c(C)c2c(=O)o1` [Entry 40, 6-(4-Benzyl-piperazine-1-carbonyl)-5-methyl-2-octylamino-thieno[2,3-d][1,3]oxazin-4-one], the k was 0.110 10-3.s-1.

In the case of `CCCCCCCCNc1nc2sc(C(=O)NCCCOc3ccccc3)c(C)c2c(=O)o1` [Entry 44, 5-Methyl-2-octylamino-4-oxo-4H-thieno[2,3-d][1,3]oxazine-6-carboxylic acid (3-phenoxy-propyl)-amide], the k was 1.667 10-3.s-1.

Turning to `CCCCCCCCNc1nc2sc(C(=O)NC(CCCC)CCCC)c(C)c2c(=O)o1` [Entry 45, 5-Methyl-2-octylamino-4-oxo-4H-thieno[2,3-d][1,3]oxazine-6-carboxylic acid (1-butyl-pentyl)-amide], the k is reported as 0.770 10-3.s-1.

In the case of `CCCCCCCCNc1nc2sc(C(=O)NCCCN(C)C)c(C)c2c(=O)o1` [Entry 46], the k is 0.062 10-3.s-1.

On to `CCCCCCCCNc1nc2sc(C(=O)N(C)Cc3cccc(C)n3)c(C)c2c(=O)o1` [Entry 49, 5-Methyl-2-octylamino-4-oxo-4H-thieno[2,3-d][1,3]oxazine-6-carboxylic acid methyl-(6-methyl-pyridin-2-ylmethyl)-amide], for which the k is 0.022 10-3.s-1.

As to `CCCCCCCCNc1nc2sc(C(=O)NCCc3cccnc3)c(C)c2c(=O)o1` [Entry 50, 5-Methyl-2-octylamino-4-oxo-4H-thieno[2,3-d][1,3]oxazine-6-carboxylic acid (2-pyridin-3-yl-ethyl)-amide], the k was 0.719 10-3.s-1.

With `CCCCCCCCNc1nc2sc(C(=O)N(CC)CCc3ccccn3)c(C)c2c(=O)o1` [Entry 51, 5-Methyl-2-octylamino-4-oxo-4H-thieno[2,3-d][1,3]oxazine-6-carboxylic acid ethyl-(2-pyridin-2-yl-ethyl)-amide], the k is given as 0.012 10-3.s-1.

On to `CCCCCCCCNc1nc2sc(C(=O)NCc3ccco3)c(C)c2c(=O)o1` [Entry 52, 5-Methyl-2-octylamino-4-oxo-4H-thieno[2,3-d][1,3]oxazine-6-carboxylic acid (furan-2-ylmethyl)-amide], for which the k is on record as 1.257 10-3.s-1.
